# Source: patent US20260285850A1, “SUBSTITUTED OXAZOLIDINONES AND IMIDAZOLINONES AS HERBICIDES” (FMC CORPORATION, priority 2023, published 2026)
# Assays:
# Type in all cases: in vivo
# [1] = test system: sedge, umbrella (small-flower umbrella sedge, Cyperus difformis); assay: Test B flooded paddy test, visual plant response rating 0-100; conditions: 250 g ai/ha, Flood, applied to paddy water, evaluated after 13 days
# Procedure, shortened: (§1)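 In this flooded assay, 2-leaf seedlings received compound through the water layer, kept at 3 cm over the soil. Plants were held 13 days in a greenhouse and then visually compared with control pots.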
# [2] = test system: rice (Oryza sativa); assay: as above; conditions: 250 g ai/ha, Flood, applied to paddy water, evaluated after 13 days
# Procedure, shortened: as §1
# [3] = test system: ducksalad (Heteranthera limosa); assay: as above; conditions: 250 g ai/ha, Flood, applied to paddy water, evaluated after 13 days
# Procedure, shortened: as §1
# [4] = test system: barnyardgrass (Echinochloa crusgalli); assay: as above; conditions: 250 g ai/ha, Flood, applied to paddy water, evaluated after 13 days
# Procedure, shortened: as §1
# [5] = test system: ragweed (common ragweed, Ambrosia artemisiifolia); assay: Test A preemergence soil spray, visual injury rating 0-100; conditions: 10 days
# Procedure, shortened: (§2)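 Grow plants in loam soil blended with sand. Apply formulated compound (non-phytotoxic solvent, surfactant) as a directed soil spray before emergence, or to plants at the one- to two-leaf stage after emergence. Hold in greenhouse 10 days, then rate injury visually versus untreated controls on a 0-100 scale.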
# [6] = test system: soybean (Glycine max); assay: as above; conditions: 10 days
# Procedure, shortened: as §2
# [7] = test system: ryegrass, Italian (italian ryegrass, Lolium multiflorum); assay: as above; conditions: 10 days
# Procedure, shortened: as §2
# [8] = test system: palmer (palmer amaranth, palmer pigweed, Amaranthus palmeri); assay: as above; conditions: 10 days
# Procedure, shortened: as §2
# [9] = test system: kochia (Bassia scoparia); assay: as above; conditions: 10 days
# Procedure, shortened: as §2
# [10] = test system: green foxtail (Setaria viridis); assay: as above; conditions: 10 days
# Procedure, shortened: as §2
# [11] = test system: wheat (Triticum aestivum); assay: as above; conditions: 10 days
# Procedure, shortened: as §2
# [12] = test system: corn (Zea mays); assay: as above; conditions: 10 days
# Procedure, shortened: as §2
# [13] = test system: blackgrass (Alopecurus myosuroides); assay: as above; conditions: 10 days
# Procedure, shortened: as §2
# [14] = test system: oat, wild (wild oat, Avena fatua); assay: as above; conditions: 10 days
# Procedure, shortened: as §2
# [15] = test system: barnyardgrass (Echinochloa crus-galli); assay: as above; conditions: 10 days
# Procedure, shortened: as §2
# [16] = test system: ragweed (common ragweed, Ambrosia artemisiifolia); assay: Test A postemergence application, visual injury rating 0-100
# Procedure, shortened: as §2
# [17] = test system: soybean (Glycine max); assay: as above
# Procedure, shortened: as §2
# [18] = test system: ryegrass, Italian (italian ryegrass, Lolium multiflorum); assay: as above
# Procedure, shortened: as §2
# [19] = test system: palmer (palmer amaranth, palmer pigweed, Amaranthus palmeri); assay: as above
# Procedure, shortened: as §2
# [20] = test system: kochia (Bassia scoparia); assay: as above
# Procedure, shortened: as §2
# [21] = test system: green foxtail (Setaria viridis); assay: as above
# Procedure, shortened: as §2
# [22] = test system: wheat (Triticum aestivum); assay: as above
# Procedure, shortened: as §2
# [23] = test system: corn (Zea mays); assay: as above
# Procedure, shortened: as §2
# [24] = test system: blackgrass (Alopecurus myosuroides); assay: as above
# Procedure, shortened: as §2
# [25] = test system: oat, wild (wild oat, Avena fatua); assay: as above
# Procedure, shortened: as §2
# [26] = test system: galium (catchweed bedstraw, Galium aparine); assay: as above
# Procedure, shortened: as §2
# [27] = test system: barnyardgrass (Echinochloa crus-galli); assay: as above
# Procedure, shortened: as §2
# [28] = test system: horseweed (Erigeron canadensis); assay: as above
# Procedure, shortened: as §2
# [29] = 62 g ai/ha, 0 = no effect, 100 = complete control
# [30] = 62 g ai/ha, postemergence, 10 days, 0 = no effect, 100 = complete control
# [31] = Postemergence, 16 g ai/ha, greenhouse 10 days, 0 no effect, 100 complete control
structure (smiles),measurement,setting,value
CC1(C(=O)NC2CC=C(C(=O)NS(=O)(=O)C(C)(C)C)C2)CN(c2cc(F)cc(F)c2)C(=O)O1 (racemic) [Compound 91],"Plant response rating, Sedge, Umbrella (0 to 100 scale, 0 is no effect and 100 is complete control)",[1],0
same,"Plant response rating, Rice (0 to 100 scale, 0 is no effect and 100 is complete control)",[2],0
same,"Plant response rating, Ducksalad (0 to 100 scale, 0 is no effect and 100 is complete control)",[3],0
same,"Plant response rating, Barnyardgrass (0 to 100 scale, 0 is no effect and 100 is complete control)",[4],0
same,Ragweed plant response rating,"[5]; 16 g ai/ha, 0 to 100 scale",0
same,Ragweed plant response rating (0-100),[5]; [29],0
same,Soybean plant response rating,"[6]; 16 g ai/ha, 0 to 100 scale",0
same,Soybean plant response rating (0-100),[6]; [29],0
same,"Ryegrass, Italian plant response rating","[7]; 16 g ai/ha, 0 to 100 scale",0
same,"Ryegrass, Italian plant response rating (0-100)",[7]; [29],0
same,"Pigweed, Palmer plant response rating","[8]; 16 g ai/ha, 0 to 100 scale",0
same,"Pigweed, Palmer plant response rating (0-100)",[8]; [29],0
same,Kochia plant response rating,"[9]; 16 g ai/ha, 0 to 100 scale",0
same,Kochia plant response rating (0-100),[9]; [29],0
same,"Foxtail, Green plant response rating","[10]; 16 g ai/ha, 0 to 100 scale",0
same,"Foxtail, Green plant response rating (0-100)",[10]; [29],0
same,Wheat plant response rating,"[11]; 16 g ai/ha, 0 to 100 scale",0
same,Wheat plant response rating (0-100),[11]; [29],0
same,Corn plant response rating,"[12]; 16 g ai/ha, 0 to 100 scale",0
same,Corn plant response rating (0-100),[12]; [29],0
same,Blackgrass plant response rating,"[13]; 16 g ai/ha, 0 to 100 scale",0
same,Blackgrass plant response rating (0-100),[13]; [29],0
same,"Oat, Wild plant response rating","[14]; 16 g ai/ha, 0 to 100 scale",0
same,"Oat, Wild plant response rating (0-100)",[14]; [29],0
same,Barnyardgrass plant response rating,"[15]; 16 g ai/ha, 0 to 100 scale",0
same,Barnyardgrass plant response rating (0-100),[15]; [29],10
same,Ragweed plant response rating (0-100),[16]; [30],20
same,Ragweed plant response rating (0 to 100 scale),[16]; [31],0
same,Soybean plant response rating (0-100),[17]; [30],30
same,Soybean plant response rating (0 to 100 scale),[17]; [31],0
same,"Ryegrass, Italian plant response rating (0-100)",[18]; [30],40
same,"Ryegrass, Italian plant response rating (0 to 100 scale)",[18]; [31],0
same,"Pigweed, Palmer plant response rating (0-100)",[19]; [30],50
same,"Pigweed, Palmer plant response rating (0 to 100 scale)",[19]; [31],0
same,Kochia plant response rating (0-100),[20]; [30],40
same,Kochia plant response rating (0 to 100 scale),[20]; [31],0
same,"Foxtail, Green plant response rating (0-100)",[21]; [30],20
same,"Foxtail, Green plant response rating (0 to 100 scale)",[21]; [31],0
same,Wheat plant response rating (0-100),[22]; [30],50
same,Wheat plant response rating (0 to 100 scale),[22]; [31],0
same,Corn plant response rating (0-100),[23]; [30],30
same,Corn plant response rating (0 to 100 scale),[23]; [31],0
same,Blackgrass plant response rating (0-100),[24]; [30],10
same,Blackgrass plant response rating (0 to 100 scale),[24]; [31],0
same,"Oat, Wild plant response rating (0-100)",[25]; [30],20
same,"Oat, Wild plant response rating (0 to 100 scale)",[25]; [31],0
same,Galium plant response rating (0-100),[26]; [30],10
same,Galium plant response rating (0 to 100 scale),[26]; [31],0
same,Barnyardgrass plant response rating (0-100),[27]; [30],40
same,Barnyardgrass plant response rating (0 to 100 scale),[27]; [31],0
same,Horseweed plant response rating (0-100),[28]; [30],0
same,Horseweed plant response rating (0 to 100 scale),[28]; [31],10
